Measured values: patent publication US6307014A (priority 1998, dated 2001)

Test system: cholinergic synapse of the buccal ganglion
Type: cell-based, Aplysia californica

“Gla Cys Cys Gla Asp Gly BrW Cys Cys Thr Ala Ala OHP [P11.1]” was tested. Which “reversibility of the IPSC decrease” value did it give?
The value was “reversed by washing”.
